Assay [1] has as its target T1, Transthyretin (Homo sapiens, UniProt P02766). Kind of assay: Binding of Examples to Transthyretin - EC50 Determination. As for the experimental part: TTR SPA binding assays were performed in a final volume of 60 mI containing 100 ng human TTR (biotinylated recombinant protein) coupled to 25 pg SPA beads (streptavidin coated, Perkin Elmer, RPNQ0007) and 50 nM [3H] tafamidis (Moravek, MT-1003033), plus varying concentrations of test compound or vehicle. Briefly, assays were prepared at room temperature in 384-well plates (Corning, 3767) containing 200 nl_ of test compound in DMSO (or DMSO as vehicle). The plates also contained wells with a saturating concentration of unlabeled ligand (200 nl_ of 3 mM tafamidis or 3 mM thyroxine in DMSO) for measuring non-specific binding. Assays were initiated by addition of 20 mI of […] TTR protein in assay buffer (10 mM Tris pH 7.5, 150 mM NaCI, 0.25% Triton X-100) and 20 mI_ of 150 nM [3H] tafamidis in assay buffer. The plates were incubated 1 hour prior to addition of 20 mI_ of 1.25 mg/ml_ SPA beads diluted in assay buffer. The assays were incubated an additional 10 hours to allow binding to reach equilibrium and the amount of receptor-ligand complex was determined by liquid scintillation counting using a 1450 Microbeta Trilux (Wallac). The % effect values for test wells were calculated based on the total binding (vehicle, 0% effect) and non-specific binding (unlabeled ligand, 100% effect) wells on each assay plate. ECso values were then determined using a standard 4 parameter logistic dose response equation.

In assay [2] the target is T1, Transthyretin. Description: KD Determination by SPR. As to the method: Affinity and Reversibility -The binding affinity and kinetics of binding were measured using Surface Plasmon Resonance based binding assay. These experiments were carried out on Bruker SPR MASS-1 and MASS-2 instruments. There was no significant difference in results obtained on both these instruments. Bap-tagged TTR protein was captured on a Streptavidin coated sensor chip to achieve about 2000 to 3000 RUs of surface density. All the samples were prepared in buffer consisting of 10 mM Sodium Phosphate, pH 7.6, 100 mM KCI, 0.005% Tween-20 and 2% DMSO. The same buffer was used as the running buffer during the experiments. Compound samples were injected at a flow rate of 30 pL/min for 90 seconds of association time followed by at least 240 seconds of dissociation period. The compounds were tested in a concentration series consisting of at least 6 samples (usually 10) made with 5-fold, 3-fold, or 2-fold dilution. The highest concentration was […] or selected based on compound binding affinity observed in a previous experiment. […] The data were processed and analyzed using Bruker Analyzer and Scrubber to calculate binding affinities by fitting the data to 1:1 binding model. […] Tafamidis binds to TTR in a reversible manner with calculated residence time of around 40 seconds.
A general note: Surface plasmon resonance follows binding to a sensor surface in real time, without labels.

Broadly, the EC50 is the midpoint of the concentration-response curve. As a reminder, the Kd is the equilibrium constant for the complex coming apart. The low end stands for higher affinity, the high end for lower affinity.

On Transthyretin [1], `Cc1[nH]nc(C#N)c1-c1ccc(C(F)(F)F)c2scnc12` [WO2022112919, Example 9] gave an EC50 of 36 nM. `Cc1n[nH]c(C)c1-c1ccnc2scnc12` [WO2022112919, Example 19] returned a Kd on Transthyretin [2] of 39 nM.

For `Cc1cc(-c2c(C)n[nH]c2C)c2ncsc2c1` [WO2022112919, Example 13], the EC50 on Transthyretin [1] was 21 nM. With `Cc1n[nH]c(C)c1-c1cc(F)cc2scnc12` [WO2022112919, Example 15], on Transthyretin [1], the response was half-maximal at 21 nM (EC50). On to `Cc1n[nH]c(C)c1-c1cccc2ncsc12` [WO2022112919, Example 2], for which the EC50 on Transthyretin [1] is 14 nM. Also, at Transthyretin [2], the dissociation constant Kd worked out at 17 nM.

Regarding `COc1cc(-c2c(C)n[nH]c2C)c2ncsc2c1` [WO2022112919, Example 14], at Transthyretin [1], the midpoint of the response, the EC50, lay at 25 nM. Still for that read-out and setting: under `Cc1[nH]nc(C#N)c1-c1ccc(C)c2scnc12` [WO2022112919, Example 8] stands 20 nM.

These data come from BindingDB's records for patent WO2022112919 (Pfizer, 2022).
